Measured values reported in PubChem BioAssay (NCI).
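The concentration for 50% growth inhibition is given as GI50. TGI: total growth inhibition.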

Key:
Assay in all cases: inhibition of tumour cell growth, NCI panel, 384-well format
A549 NSCLC = test system: A549 NSCLC
BT-549 breast = test system: BT-549 breast
CAKI-1 renal = test system: CAKI-1 renal
DU-145 prostate = test system: DU-145 prostate
HCC-2998 colon = test system: HCC-2998 colon
HL-60(TB) leukemia = test system: HL-60(TB) leukemia
HT29 colon = test system: HT29 colon
NCI-H322M lung = test system: NCI-H322M lung
RPMI-8226 leukemia = test system: RPMI-8226 leukemia
SK-OV-3 ovarian = test system: SK-OV-3 ovarian
SNB-19 CNS = test system: SNB-19 CNS
SW-620 colon = test system: SW-620 colon
UACC-257 melanoma = test system: UACC-257 melanoma

## CNC(=O)c1ccccc1Nc1nc(Nc2ccc3c(c2OC)CCC[C@H](N2CCN(CCO)CC2)C3)ncc1Cl
A549 NSCLC
  GI50: 1080 nM
  TGI: 2330 nM
BT-549 breast
  GI50: 1970 nM
  TGI: 5200 nM
CAKI-1 renal
  GI50: 511 nM
  TGI: 1920 nM
DU-145 prostate
  GI50: 728 nM
  TGI: 2600 nM
HCC-2998 colon
  GI50: 1210 nM
  TGI: 2550 nM
HL-60(TB) leukemia
  GI50: 215 nM
  TGI: 551 nM
HT29 colon
  GI50: 303 nM
  TGI: 1350 nM
NCI-H322M lung
  GI50: 806 nM
  TGI: 2330 nM
RPMI-8226 leukemia
  GI50: 1150 nM
  TGI: 2420 nM
SK-OV-3 ovarian
  GI50: 740 nM
  TGI: 2300 nM
SNB-19 CNS
  GI50: 2200 nM
  TGI: 5900 nM
SW-620 colon
  GI50: 727 nM
  TGI: 2100 nM
UACC-257 melanoma
  GI50: 327 nM
  TGI: 993 nM
